Ten compounds from US20260108546A1 (ELI LILLY AND COMPANY, priority 2024, published 2026) can be followed below.

The structures appear in SMILES notation.

The target of the experiment is T1, hGIP-R (Homo sapiens, UniProt P48546).
T1 construct: expressed in transfected cells; host or cells: HEK-293 clonal cell lines
T1 sequence (P48546 22-466): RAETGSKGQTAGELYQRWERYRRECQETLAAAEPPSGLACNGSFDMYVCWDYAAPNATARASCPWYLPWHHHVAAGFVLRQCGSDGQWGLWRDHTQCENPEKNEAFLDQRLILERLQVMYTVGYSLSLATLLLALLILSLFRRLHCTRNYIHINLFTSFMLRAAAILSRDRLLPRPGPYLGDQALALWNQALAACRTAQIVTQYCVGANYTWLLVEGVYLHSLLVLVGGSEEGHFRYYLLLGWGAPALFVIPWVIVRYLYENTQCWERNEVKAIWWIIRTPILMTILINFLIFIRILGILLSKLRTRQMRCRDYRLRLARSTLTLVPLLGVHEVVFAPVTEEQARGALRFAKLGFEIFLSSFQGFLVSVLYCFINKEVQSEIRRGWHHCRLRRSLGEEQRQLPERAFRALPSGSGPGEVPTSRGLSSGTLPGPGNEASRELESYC
Put plainly: Functional hGIP-R Assay (cAMP formation, HTRF). It is filed as cell-based. The conditions noted are these: for Emax: cAMP efficacy, percent of maximal response to GIP(1-42)OH, 37° C., 0.1% bovine casein, arithmetic mean ± SEM; for EC50: cAMP potency, HEK-293 cells expressing hGIP-R, incubated at 37° C. in the presence of 0.1% bovine casein, geometric mean, read-out: Human GIP-R EC50, nM (SEM, n). The method in brief: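 HEK-293 cells expressing hGIP-R were given a 20-point compound series in DMEM with 0.1% casein, 250 μM IBMX, 1% DMSO, 30 min at 37 °C. cAMP was read by HTRF against a standard curve, expressed as % of human GIP (1-42) OH maximum; EC50 and Emax came from four-parameter fits.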

In general, Emax refers to the greatest response seen or fitted, relative to the assay's reference. A word on the EC50: it is the concentration at which the effect is half-maximal. Take `[2H]C([2H])([2H])n1cc(C[C@H](C(=O)NC(C)(C)Cn2nc(C(F)(F)F)cc2-c2ccc(C(C)(C)O)nc2)N2CC[C@@]3(C[C@@H]3c3ccc(-c4cnc5nc(C6CC6)cn5c4)nc3C)C2=O)cn1` [Example 185, (R)-2-((1R,3R)-1-(6-(2-cyclopropylimidazo[1,2-a]pyrimidin-6-yl)-2-methylpyridin-3-yl)-4-oxo-5-azaspiro[2.4]heptan-5-yl)-N-(1-(5-(6-(2-hydroxypropan-2-yl)pyridin-3-yl)-3-(trifluoromethyl)-1H-pyrazol-1-yl)-2-methylpropan-2-yl)-3-(1-(methyl-d3)-1H-pyrazol-4-yl)propanamide]: the Emax was 115 ± 5.3% and the EC50 worked out at 0.402 nM.
In the same order, the values of `[2H]C([2H])([2H])n1cc(C[C@H](C(=O)NC(C)(C)Cn2nc(C(F)(F)F)cc2-c2cnc(C(C)(C)O)nc2)N2CC[C@@]3(C[C@@H]3c3ccc(-c4cnc5nc(C6CC6)cn5c4)nc3C)C2=O)cn1` [Example 186, (R)-2-((1R,3R)-1-(6-(2-cyclopropylimidazo[1,2-a]pyrimidin-6-yl)-2-methylpyridin-3-yl)-4-oxo-5-azaspiro[2.4]heptan-5-yl)-N-(1-(5-(2-(2-hydroxypropan-2-yl)pyrimidin-5-yl)-3-(trifluoromethyl)-1H-pyrazol-1-yl)-2-methylpropan-2-yl)-3-(1-(methyl-d3)-1H-pyrazol-4-yl)propanamide] are 104 ± 0.548% and 1.75 nM.
In the same order, the values of `[2H]C([2H])([2H])n1cc(C[C@H](C(=O)NC(C)(C)Cn2nc(C(F)(F)F)cc2-c2cnc(C(C)(C)O)nc2)N2CC[C@@]3(C[C@@H]3c3ccc(-c4cnc5nc(C)cn5c4)cc3Cl)C2=O)cn1` [Example 187, (R)-2-((1S,3R)-1-(2-chloro-4-(2-methylimidazo[1,2-a]pyrimidin-6-yl)phenyl)-4-oxo-5-azaspiro[2.4]heptan-5-yl)-N-(1-(5-(2-(2-hydroxypropan-2-yl)pyrimidin-5-yl)-3-(trifluoromethyl)-1H-pyrazol-1-yl)-2-methylpropan-2-yl)-3-(1-(methyl-d3)-1H-pyrazol-4-yl)propanamide] are 84.6 ± 2.33% and 1.26 nM.
For `[2H]C([2H])([2H])n1cc(C[C@H](C(=O)NC(C)(C)Cn2nc(C(F)(F)F)cc2-c2ccc(C(C)(C)O)nc2)N2CC[C@@]3(C[C@@H]3c3ccc(-c4cnc5nc(COC)cn5c4)cc3Cl)C2=O)cn1` [Example 188, (R)-2-((1S,3R)-1-(2-chloro-4-(2-(methoxymethyl)imidazo[1,2-a]pyrimidin-6-yl)phenyl)-4-oxo-5-azaspiro[2.4]heptan-5-yl)-N-(1-(5-(6-(2-hydroxypropan-2-yl)pyridin-3-yl)-3-(trifluoromethyl)-1H-pyrazol-1-yl)-2-methylpropan-2-yl)-3-(1-(methyl-d3)-1H-pyrazol-4-yl)propanamide], in that order: 110 ± 4.51% and 0.265 nM.
As to `[2H]C([2H])([2H])n1cc(C[C@H](C(=O)NC(C)(C)Cn2nc(C(F)(F)F)cc2-c2ccc(C(C)(C)O)nc2)N2CC[C@@]3(C[C@@H]3c3ccc(-c4cnc5nn(CC)cc5c4)nc3C)C2=O)cn1` [Example 189, (R)-2-((1R,3R)-1-(6-(2-Ethyl-2H-pyrazolo[3,4-b]pyridin-5-yl)-2-methylpyridin-3-yl)-4-oxo-5-azaspiro[2.4]heptan-5-yl)-N-(1-(5-(6-(2-hydroxypropan-2-yl)pyridin-3-yl)-3-(trifluoromethyl)-1H-pyrazol-1-yl)-2-methylpropan-2-yl)-3-(1-(methyl-d3)-1H-pyrazol-4-yl)propanamide], the Emax was 61 ± 0.6% and the EC50 turned out to be 1.3 nM.
Turning to `[2H]C([2H])([2H])n1cc(C[C@H](C(=O)NC(C)(C)Cn2nc(C(F)(F)F)cc2-c2ccc(C(C)(C)O)nc2)N2CC[C@@]3(C[C@@H]3c3ccc(-c4cnc5nn(C6CC6)cc5c4)nc3C)C2=O)cn1` [Example 190, (R)-2-((1R,3R)-1-(6-(2-cyclopropyl-2H-pyrazolo[3,4-b]pyridin-5-yl)-2-methylpyridin-3-yl)-4-oxo-5-azaspiro[2.4]heptan-5-yl)-N-(1-(5-(6-(2-hydroxypropan-2-yl)pyridin-3-yl)-3-(trifluoromethyl)-1H-pyrazol-1-yl)-2-methylpropan-2-yl)-3-(1-(methyl-d3)-1H-pyrazol-4-yl)propanamide], the Emax amounted to 80.2 ± 6.78% and the EC50 was found to be 1.12 nM.
For `[2H]C([2H])([2H])n1cc(C[C@H](C(=O)NC(C)(C)Cn2nc(C(F)(F)F)cc2-c2cnc(C(C)(C)O)nc2)N2CC[C@@]3(C[C@@H]3c3ccc(-c4cnc5nn(C6CC6)cc5c4)nc3C)C2=O)cn1` [Example 191, (R)-2-((1R,3R)-1-(6-(2-cyclopropyl-2H-pyrazolo[3,4-b]pyridin-5-yl)-2-methylpyridin-3-yl)-4-oxo-5-azaspiro[2.4]heptan-5-yl)-N-(1-(5-(2-(2-hydroxypropan-2-yl)pyrimidin-5-yl)-3-(trifluoromethyl)-1H-pyrazol-1-yl)-2-methylpropan-2-yl)-3-(1-(methyl-d3)-1H-pyrazol-4-yl)propanamide], in that order: 78.5 ± 0.865% and 2.89 nM.
For the compound `[2H]C([2H])([2H])n1cc(C[C@H](C(=O)NC(C)(C)Cn2nc(C(F)(F)F)cc2-c2ccc(C(C)(C)O)nc2)N2CC[C@@]3(C[C@@H]3c3ccc(-c4cnc5nc(COC)cn5c4)nc3C3CC3)C2=O)cn1` [Example 192, (R)-2-((1R,3R)-1-(2-cyclopropyl-6-(2-(methoxymethyl)imidazo[1,2-a]pyrimidin-6-yl)pyridin-3-yl)-4-oxo-5-azaspiro[2.4]heptan-5-yl)-N-(1-(5-(6-(2-hydroxypropan-2-yl)pyridin-3-yl)-3-(trifluoromethyl)-1H-pyrazol-1-yl)-2-methylpropan-2-yl)-3-(1-(methyl-d3)-1H-pyrazol-4-yl)propanamide], the Emax turned out to be 129% and the EC50 came to 0.0409 nM.
For the compound `[2H]C([2H])([2H])n1cc(C[C@H](C(=O)NC(C)(C)Cn2nc(C(F)(F)F)cc2-c2cnc(C(C)(C)O)nc2)N2CC[C@@]3(C[C@@H]3c3ccc(-c4cnc5nn(C)cc5c4)cc3Cl)C2=O)cn1` [Example 193, (R)-2-((1S,3R)-1-(2-chloro-4-(2-methyl-2H-pyrazolo[3,4-b]pyridin-5-yl)phenyl)-4-oxo-5-azaspiro[2.4]heptan-5-yl)-N-(1-(5-(2-(2-hydroxypropan-2-yl)pyrimidin-5-yl)-3-(trifluoromethyl)-1H-pyrazol-1-yl)-2-methylpropan-2-yl)-3-(1-(methyl-d3)-1H-pyrazol-4-yl)propanamide], the Emax came out at 85.5 ± 0.117% and the EC50 worked out at 1.33 nM.
Take `[2H]C([2H])([2H])n1cc(C[C@H](C(=O)NC(C)(C)Cn2nc(C(F)(F)F)cc2-c2ccc(C(C)(C)O)nc2)N2CC[C@@]3(C[C@@H]3c3ccc(-c4cnc5nn(C)cc5c4)cc3Cl)C2=O)cn1` [Example 194, (R)-2-((1S,3R)-1-(2-chloro-4-(2-methyl-2H-pyrazolo[3,4-b]pyridin-5-yl)phenyl)-4-oxo-5-azaspiro[2.4]heptan-5-yl)-N-(1-(5-(6-(2-hydroxypropan-2-yl)pyridin-3-yl)-3-(trifluoromethyl)-1H-pyrazol-1-yl)-2-methylpropan-2-yl)-3-(1-(methyl-d3)-1H-pyrazol-4-yl)propanamide]: the Emax came out at 64.1 ± 0.489% and the EC50 came to 0.567 nM.
